Data as given in patent US4325954A, “Pyrrolopyrimidinones and pyrroloimidazolones and their compositions and therapeutic methods” (Laboratoires Jacques Logeais, priority 1979, dated 1982).
Where two headings read alike, the source gives them in different places.

How the values were obtained:
[1] = Acute toxicity in mice (oral or intraperitoneal single dose); conditions: mouse, in vivo, observed at least one week
Description: Each compound was administered orally or intraperitoneally as a single dose.

[2] = system: palpebral ptosis induced by a reserpine injection; experiment: Antidepressant activity: antagonism of palpebral ptosis induced by reserpine injection; type: in vivo; conditions: Mus musculus; mice, oral, one hour prior to reserpine 2 mg/kg ip; recorded hourly for 3 hours (Rubin's scale); read-out: ptosis reserpine ED50 (dosage which inhibits palpebral ptosis by 50%)
Description: The antidepressant activity of each compound was evaluated in mice from its ability to antagonize palpebral ptosis induced by a reserpine injection. The different materials were administered orally, as a preventive treatment, one hour prior to intraperitoneal injection of reserpine (2 mg/kg). The intensity of the palpebral ptosis was then recorded at hourly intervals, for a period of time of 3 hours, according to a semi-quantitative scale (Rubin's scale). The test materials were administered at several dosage levels and, for most of them, the 50% efficient dosage (ED50) which inhibits palpebral ptosis by a factor of 50% could be evaluated.

cardiovascular system = experiment: Effects on the cardiovascular system in dogs; type: in vivo; conditions: intravenous, 0.1 mg/kg to 10 mg/kg
Description: The compounds of the formula (I) were administered intravenously in dogs, at dosages from 0.1 mg/kg to 10 mg/kg. The changes of blood pressure, of the femoral arterial rate, of vascular resistance subsequent to said injections were recorded.

[3] = system: peripheral and central cholinergic effects of oxotremorine; experiment: Atropine activity: effect on peripheral and central cholinergic effects of oxotremorine; type: in vivo; conditions: 100 mg/kg oral, 60 minutes prior to subcutaneous oxotremorine 2 mg/kg
Description: In view of the detrimental atropine-like side-effect of the conventional antidepressants, this potential property was systematically investigated in the compounds of the formula (I).
The different materials were administered orally 60 minutes prior to subcutaneous oxotremorine injection at a dosage of 2 mg/kg.
15 minutes, and then 30 and 45 minutes after injection of the cholinergic agent, the various symptoms reflecting a parasympathetic stimulation were evaluated according to a semi-quantitative arbitrary scale (from 0 to 4).
peripheral cholinergic stimulation symptoms: tearfulness, salivation;
central cholinergic stimulation: trembling, Straub's phenomenon.

[4] = ip, intraperitoneal, read-out: LD50 ip

CCOC(=O)C1N=C2CC(c3ccccc3)CN2C1=O (stereo not shown) [Example 5]
LD50 [1, 4]: > 200 mg/kg | LD50 ([1]; oral, read-out: LD50 po): > 200 mg/kg | ED50 [2]: ~7 mg/kg | vasoconstrictive action (cardiovascular system): slightly vasoconstrictive

O=C1CCN=C2CC(c3cc4ccccc4o3)CN12 (stereo not shown) [Example 15]
LD50 [1, 4]: > 200 mg/kg | LD50 ([1]; oral, read-out: LD50 po): > 200 mg/kg | ED50 [2]: ~33 mg/kg

CSCCC1N=C2CC(c3ccccc3)CN2C1=O (stereo not shown) [Example 8]
LD50 [1, 4]: > 200 mg/kg | LD50 ([1]; oral, read-out: LD50 po): > 200 mg/kg | ED50 [2]: ~30 mg/kg | action on the blood pressure (cardiovascular system): slight hypotensive action

CC1N=C2CC(c3ccccc3)CN2C1=O (racemic) [Example 1]
LD50 [1, 4]: > 200 mg/kg | LD50 ([1]; oral, read-out: LD50 po): > 200 mg/kg | ED50 [2]: ~33 mg/kg

CC(C)C1N=C2CCC(c3ccccc3)CN2C1=O (racemic) [Example 10]
LD50 [1, 4]: > 200 mg/kg | LD50 ([1]; oral, read-out: LD50 po): > 200 mg/kg | ED50 [2]: ~100 mg/kg | inhibitor activity on cholinergic effects of oxotremorine [3]: slight inhibitor activity

CC(C)C1N=C2CC(c3ccccc3)CN2C1=O (racemic) [Example 2]
LD50 [1, 4]: > 200 mg/kg | LD50 ([1]; oral, read-out: LD50 po): > 200 mg/kg | ED50 [2]: > 30 mg/kg

O=C1CCCN=C2CC(c3ccccc3)CN12 (stereo not shown) [Example 18]
LD50 [1, 4]: > 200 mg/kg | LD50 ([1]; oral, read-out: LD50 po): > 200 mg/kg | ED50 [2]: < 33 mg/kg

CCOC(=O)CCC1N=C2CCC(c3ccccc3)CN2C1=O (stereo not shown) [Example 13]
LD50 [1, 4]: > 200 mg/kg | LD50 ([1]; oral, read-out: LD50 po): > 200 mg/kg | ED50 [2]: ~30 mg/kg

O=C1C(c2ccccc2)N=C2CC(c3ccccc3)CN12 (racemic) [Example 3]
LD50 [1, 4]: > 200 mg/kg | LD50 ([1]; oral, read-out: LD50 po): > 200 mg/kg | ED50 [2]: ~30 mg/kg

CCOC(=O)CC1N=C2CC(c3ccccc3)CN2C1=O (stereo not shown) [Example 6]
LD50 [1, 4]: > 200 mg/kg | LD50 ([1]; oral, read-out: LD50 po): > 200 mg/kg | ED50 [2]: ~100 mg/kg | action on the blood pressure (cardiovascular system): slight hypotensive action

CCOC(=O)C1N=C2CCC(c3ccccc3)CN2C1=O (stereo not shown) [Example 12]
LD50 [1, 4]: > 200 mg/kg | LD50 ([1]; oral, read-out: LD50 po): > 200 mg/kg | ED50 [2]: ~30 mg/kg

O=C1CCN=C2CC(c3ccccc3)CN12 (stereo not shown) [Example 14]
LD50 [1, 4]: > 200 mg/kg | LD50 ([1]; oral, read-out: LD50 po): > 200 mg/kg | ED50 [2]: 5 mg/kg

O=C1CCN=C2CCC(c3ccccc3)N12 (stereo not shown) [Example 17]
LD50 [1, 4]: > 200 mg/kg | LD50 ([1]; oral, read-out: LD50 po): > 200 mg/kg | ED50 [2]: < 100 mg/kg

O=C1C(Cc2ccccc2)N=C2CC(c3ccccc3)CN12 (stereo not shown) [Example 4]
LD50 [1, 4]: < 200 mg/kg | LD50 ([1]; oral, read-out: LD50 po): > 200 mg/kg | ED50 [2]: < 30 mg/kg

CCOC(=O)CCC1N=C2CC(c3ccccc3)CN2C1=O (stereo not shown) [Example 7]
LD50 [1, 4]: > 200 mg/kg | LD50 ([1]; oral, read-out: LD50 po): > 200 mg/kg | ED50 [2]: ~30 mg/kg
